According to patent US20210040485A1, “Elimination or Neutralization of Endogenous High Molecular Weight FGF-2 Increases Cardiac Resistance to Doxorubicin-Induced Damage” (University of Manitoba, priority 2018, published 2021):
Where two headings read alike, the source gives them in different places.

Assays:
[1] = clinic; cited from earlier work
[2] = test system: FGF2(WT), FGF2(−), FGF2(Hi), FGF2(Lo) mice; test: In vivo model for acute Doxorubicin effects: mortality and body weight; design: species or system mouse; conditions: for effect on body weight: all groups, 10 days post-injection; for Dox-induced mortality: by day 10 post-Dox
Source text: In vivo model for acute cardiotoxic effects. […] Hearts were then collected for biochemical analyses.

[3] = test system: r-cardiomyocytes co-cultured with human FibiPSC; test: FibiPSC-cardiomyocyte co-cultures exposed to Dox: cTnT release; format: cell-based, rat; conditions: control (IgG) co-cultures with h-FibiPSC; Dox 0.5 μM, 24 h
Description: Fib^iPSC-Cardiomyocyte co-cultures. Cardiomyocytes were plated at a density of 5×10^4 cells/cm^2 on collagen coated plates in the presence of 20% (FBS) in Hams F-10 culture medium. After 24 hours, the media was changed to low serum medium (0.5% FBS, 1% insulin, 1% transferrin/selenium, 1% ascorbic acid, and 1% bovine serum albumin) in Dulbecco's modified Eagle's medium (DMEM). FibiPSC were added to the cultures at a density of 3×10^4/cm^2. Human Hi-FGF2 antibody (Hi-Ab, 20 μg/ml) or non-immune rabbit IgG was added to the culture after 6 hours. The Hi-Ab and rabbit IgG were supplemented in the co-cultures every 24 hours. […] Subsequently, the media was collected and stored at −80° C.
Protein extraction and immunoblotting (western blot).
Hi-FGF2 antibody. Anti-Hi-FGF2 antibody (Hi-Ab) against 12 amino acids from the N-terminal section of the Hi-FGF2 “[…]” (SEQ ID NO:1) was made in rabbit and affinity purified by Genscript. Characterization was done as we described previously, for a similar preparation anti-Hi-FGF2 (9). Affinity purified Hi-Ab was used at a concentration of 20 μg/ml in in vitro models.

[4] = test system: Bnip3 protein in hearts of FGF2 mouse strains; conditions: in vivo
Description: Protein (western) immunoblotting. At the end of the in vivo study, hearts were collected, snap frozen in liquid nitrogen, and stored at −80° C. Hearts were powdered with liquid nitrogen using a mortar and pestle prior to being homogenized in 10 mM Tris-HCl pH 7.4, 100 mM NaCl, 300 mM sucrose, 2 mM MgCl2, 1% thiodiglycol, 60 mM B glycerophosphate, 10 mM NaF and an equal volume of 20% glycerol, 100 mM Tris/HCl PH=6.8, and 2% sodium dodecyl sulphate (SDS). All buffers were supplemented (1:100) with protease inhibitor cocktail (Sigma-Aldrich, #8304) and phosphatase inhibitor cocktail set II and IV (Calbiochem, #524625 and #524628). Samples were boiled, sonicated, and centrifuged 15 minutes at 21,000 g to remove cellular debris. Protein concentration was measured by bicinchoninic acid assay. Following SDS-polyacrylamide gel electrophoresis and protein transfer to polyvinylidene fluoride (PVDF) membranes, total protein was stained using 2% Ponceau S (Sigma-Aldrich, P3504) (w/v) in 30% trichloroacetic acid to assess overall protein transfer. Non-specific binding sites were blocked by incubation in 10% milk/TBS-T for 1 hour at room temperature. […]
Protein extraction and immunoblotting (western blot). […] Protein concentration was measured using the bicinchoninic acid assay from Sigma. […]

[5] = test system: neonatal rat ventricular cardiomyocytes co-cultured with MEFs; test: MEF-cardiomyocyte co-cultures exposed to Dox: Troponin T release into medium; format: cell-based; conditions: Dox 0.5 μM, 24 h
Description: In vitro experiments. Neonatal rat ventricular cardiomyocytes (referred to as ‘cardiomyocytes’) were isolated from 1-2 day old rat pups as previously described (10).
MEF-Cardiomyocyte co-cultures. Cardiomyocytes were plated at a density of 5×10^4 cells/cm^2 on collagen (Corning, #354236) coated glass coverslips in the presence of 20% fetal bovine serum (FBS) in Hams F-10 culture medium; 24 hours later the media was changed and MEFS from FGF2(WT), FGF2(−), FGF2(Hi), and FGF2(Lo) strains (2×10^4/cm^2) were added to the cultures in low-serum medium (0.5% FBS, 1% insulin, 1% transferrin/selenium, and 1% ascorbic acid) in Dulbecco's modified Eagle's medium (DMEM). […] Conditioned media were collected 24 h later, and stored at −80° C. Cells attached on coverslips were used for the Calcein-AM/Cobalt chloride mPTP assay.
Primary mouse embryonic fibroblasts (MEFs)-r-cardiomyocyte co-cultures. MEFs were isolated as described (30). R-cardiomyocytes were plated at a density of 5×10^4 cells/cm^2 on collagen (Corning, #354236) coated glass coverslips in the presence of 20% fetal bovine serum (FBS) in Hams F-10 culture medium; 24 hours later the media was changed and MEFS from FGF2(WT) and FGF2(Lo) strains (2×10^4/cm^2) were added to the cultures in low-serum medium (0.5% FBS, 1% insulin, 1% transferrin/selenium, and 1% ascorbic acid) in Dulbecco's modified Eagle's medium (DMEM). […]

[6] = test system: cancer patients; conditions: cited from earlier work

Substance	half life [1] [days]	effect on body weight [2]	effect on body weight ([2]; listed as Doxorubicin)	deaths associated with Dox administration ([2]; female FGF2(WT) and FGF2(Lo) groups)	Dox-induced mortality ([2]; female FGF2(−) mice) [%]	post-Dox mortality ([2]; male FGF2(Hi) mice) [%]	post-Dox mortality ([2]; male FGF2(WT) mice) [%]	Dox-induced mortality ([2]; male FGF2(−) mice) [%]	deaths associated with Dox administration ([2]; males, in either the FGF2(WT) or the FGF2(Lo) group)	deaths post-Dox ([2]; remaining female groups (other than FGF2(−)))	cardiomyocyte damage measured by cTnT release [3]	upregulation of cardiac Bnip3 protein versus saline-treated group [4] [fold]	Dox-induced cTnT release ([5]; co-cultures with FGF2(WT) MEFs)	Dox-induced Tn-T release ([5]; co-cultures with FGF2(WT), FGF2(−) and FGF2(Hi) MEFs)	incidence of cardiotoxicity ([6]; cumulative dose 400 mg/m^2)	incidence of cardiotoxicity ([6]; cumulative dose 700 mg/m^2)
infliximab	9.5	–	–	–	–	–	–	–	–	–	–	–	–	–	–	–
pertuzumab	18	–	–	–	–	–	–	–	–	–	–	–	–	–	–	–
Doxorubicin	–	some weight loss	significantly decreased body weight	No death	30	20	10	70	one death in ten animals	No deaths	robust cardiomyocyte damage	1.5	observed	observed	3-5%	18-48%
